The subject of data set [1] is alkaline phosphatase activity in T47D cells. Briefly: Effects of progestins and antiprogestins on alkaline phosphatase activity in T47D cells. In kind it is cell-based. The settings on record: Homo sapiens; for IC50: antagonist mode in the presence of 1 nM progesterone, 24 hours; for inhibition at 3 µM: at 3000 nM; for inhibition at 0.3 µM: at 300 nM. On the procedure: The purpose of this example is to identify progestins or antiprogestins by determining a compound's effect on alkaline phosphatase activity in T47D cells.
A. Reagents: • Culture medium: Dulbecco's Modified Eagle Medium (DMEM):F12 (1:1) (GIBCO, BRL) supplemented with 5% (v/v) charcoal stripped fetal bovine serum (not heat-inactivated), 100 U/mL penicillin, 100 μg/mL streptomycin, and 2 mM of the GlutaMax® reagent (GIBCO, BRL). • Alkaline phosphatase assay buffer: • I. 0.1M Tris-HCl, pH 9.8, containing 0.2% Triton® X-100 reagent • II. 0.1M Tris-HCl, pH 9.8, containing 4 mM p-nitrophenyl phosphate (Sigma).
Frozen T47D cells are thawed in a 37° C. water bath and diluted to 280,000 cells/mL in culture medium. To each well in a 96-well plate (Falcon, Becton Dickinson Labware), was added 180 μL of diluted cell suspension. Twenty μL of reference or test compounds diluted in the culture medium is then added to each well. When testing for progestin antagonist activity, reference antiprogestins or test compounds are added in the presence of 1 nM progesterone. The cells are incubated at 37° C. in a 5% CO2/humidified atmosphere for 24 hours. For high throughput screening, one concentration of each compound will be tested at 0.3 μg/mL. Based on an average molecular weight of 300 g/mol for the compounds in the library, the concentration is approximately 1 μM. Compounds active in this assay can be tested in dose response assays to determine EC50 and IC50.
C. Alkaline Phosphatase Enzyme Assay: • At the end of treatment, the medium is removed from the plate. Fifty μL of assay buffer I is added to each well. The plates are shaken in a titer plate shaker for 15 minutes. Then 150 μL of assay buffer II is added to each well. Optical density measurements are taken at 5 minute intervals for 30 minutes at a test wavelength of 405 nm.
D. Analysis of Results: Analysis of Dose-Response Data • For reference and test compounds, a dose response curve is generated for dose (X-axis) vs. the rate of enzyme reaction (slope) (Y-axis). Square root-transformed data are used for analysis of variance and nonlinear dose response curve fitting for both agonist and antagonist modes. Huber weighting is used to down-weight the effects of outliers. EC50 or IC50 values are calculated from the retransformed values. JMP® software (SAS Institute, Inc.) is used for both one-way analysis of variance and non-linear dose response analysis in both single dose and dose response studies.
E. Reference Compounds • Progesterone and trimegestone are reference progestins and RU486 is the reference antiprogestin. All reference compounds are run in full dose response curves and the EC50 and IC50 values are calculated.

[2] abbreviates: in the presence of 1 nM progesterone.

Structures are written as SMILES.

These results are taken from US20090197878A1, “SUBSTITUTED BENZO[d][1,3]OXAZIN-2(4H)-ONES AND RELATED DERIVATIVES AND THEIR USES FOR MODULATING THE PROGESTERONE RECEPTOR” (Wyeth, priority 2008, published 2009).

Turning to `COC(=O)/C=C/c1ccc2c(c1)C(C)(C)CC(=O)N2` [Example 1, Methyl(2E)-3-(4,4-dimethyl-2-oxo-1,2,3,4-tetrahydroquinolin-6-yl)acrylate], the melting point was 174 to 175 °C.
`COC(=O)/C=C/c1ccc2c(c1)C(C)(C)OC(=O)N2` [Example 2, Methyl(2E)-3-(4,4-dimethyl-2-oxo-1,4-dihydro-2H-3,1-benzoxazin-6-yl)acrylate] had a melting point of 204 to 205 °C.
Still for that read-out and setting: in the case of `CC1(C)OC(=O)Nc2ccc(/C=C/c3ccno3)cc21` [Example 3, 6-[(E)-2-Isoxazol-5-ylvinyl]-4,4-di-methyl-1,4-dihydro-2H-3,1-benzoxazin-2-one] it was 190 to 193 °C.
Take `CC1(C)OC(=O)Nc2ccc(/C=C/C(N)=O)cc21` [Example 4, (2E)-3-(4,4-Dimethyl-2-oxo-1,4-dihydro-2H-3,1-benzoxazin-6-yl)acrylamide]: the melting point was 196 to 198 °C. Besides, in data set [1], the concentration for half-maximal inhibition (IC50) was 50 µM.
Take `C/C(=C\C(N)=O)c1ccc2c(c1)C(C)(C)OC(=O)N2` [Example 5, (2E)-3-(4,4-Dimethyl-2-oxo-1,4-dihydro-2H-3,1-benzoxazin-6-yl)but-2-enamide]: the melting point lay within 198 to 200 °C. Besides, the 50% inhibitory concentration (IC50) in data set [1] is 50 µM.
The matching figures for `CC1(C)OC(=O)Nc2ccc(/C(=C/C(N)=O)c3ccccc3)cc21` [Example 7, (2E)-3-(4,4-Dimethyl-2-oxo-1,4-dihydro-2H-3,1-benzoxazin-6-yl)-3-phenylacrylamide]: 219 to 220 °C and 50 µM.
For `CC1(C)OC(=O)Nc2ccc(/C=C/C#N)cc21` [Example 8, (2E)-3-(4,4-Dimethyl-2-oxo-1,4-dihydro-2H-3,1-benzoxazin-6-yl)acrylonitrile], the melting point was 238 to 240 °C (dec.).
On the same count and under the same terms, then `CC1(C)OC(=O)Nc2ccc(C3=CC(=O)OCC3)cc21` [Example 10, 4,4-Dimethyl-6-(6-oxo-3,6-dihydro-2H-pyran-4-yl)-1,4-dihydro-2H-3,1-benzoxazin-2-one], with 235 to 236 °C (dec.); and `COC(=O)/C=C(\c1ccccc1)c1ccc2c(c1)C(C)(C)OC(=O)N2` [Example 11, Methyl(2E)-3-(4,4-dimethyl-2-oxo-1,4-dihydro-2H-3,1-benzoxazin-6-yl)-3-phenylacrylate], with 181 to 182 °C.
For `CC1(C)OC(=O)Nc2ccc(/C=C/C(=O)O)cc21` [Example 14, (2E)-3-(4,4-Dimethyl-2-oxo-1,4-dihydro-2H-3,1-benzoxazin-6-yl)acrylic acid], the melting point is 260 to 261 °C (dec.). For the same compound, the inhibition at 3 µM in data set [1] (setting [2]) came out at 0%.
Consider `C/C(=C\C(=O)O)c1ccc2c(c1)C(C)(C)OC(=O)N2` [Example 15, (2E)-3-(4,4-Dimethyl-2-oxo-1,4-dihydro-2H-3,1-benzoxazin-6-yl)but-2-enoic acid], for which the melting point was 274 to 275 °C (dec.). Further, the inhibition at 3 µM in data set [1] (setting [2]) was 0%.
Regarding `C/C(=C\C(N)=O)c1ccc2c(c1)C1(CCCCC1)OC(=O)N2` [Example 16, (2E)-3-(2-Oxo-1,2-dihydrospiro[3,1-benzoxazine-4,1′-cyclohexan]-6-yl)but-2-enamide], the melting point is 204 to 207 °C (dec.). Besides, the inhibition at 3 µM in data set [1] (setting [2]) stood at 0%.
With `C/C(=C\C#N)c1ccc2c(c1)C1(CCCCC1)OC(=O)N2` [Example 17, (2E)-3-(2-oxo-1,2-dihydrospiro[3,1-benzoxazine-4,1′-cyclohexan]-6-yl)but-2-enenitrile], the melting point is 208 to 210 °C (dec.). Besides, the inhibition at 0.3 µM in data set [1] (setting [2]) was determined as 60%.
For `CC/C(=C\C(N)=O)c1ccc2c(c1)C1(CCCCC1)OC(=O)N2` [Example 18, (2E)-3-(2-Oxo-1,2-dihydrospiro[3,1-benzoxazine-4,1′-cyclohexan]-6-yl)pent-2-enamide], the melting point is 235 to 238 °C (dec.). For the same compound, the inhibition at 3 µM in data set [1] (setting [2]) was found to be 22%.
`CC/C(=C\C#N)c1ccc2c(c1)C1(CCCCC1)OC(=O)N2` [Example 19, (2E)-3-(2-Oxo-1,2-dihydrospiro[3,1-benzoxazine-4,1′-cyclohexan]-6-yl)pent-2-enenitrile]: the melting point fell in the range of 173 to 174 °C. Also, in data set [1] (at 30 nM, in the presence of 1 nM progesterone), the inhibition at 0.03 µM amounted to 60%.
As to `CC(C)/C(=C\C#N)c1ccc2c(c1)C1(CCCCC1)OC(=O)N2` [Example 21, (2E)-4-Methyl-3-(2-oxo-1,2-dihydrospiro[3,1-benzoxazine-4,1′-cyclohexan]-6-yl)pent-2-enenitrile], the melting point is 201 to 203 °C (dec.). In data set [1] (setting [2]), the inhibition at 0.3 µM was found to be 60%.
For the compound `CCC/C(=C\C(N)=O)c1ccc2c(c1)C(CC)(CC)OC(=O)N2` [Example 24, (2E)-3-(4,4-Diethyl-2-oxo-1,4-dihydro-2H-3,1-benzoxazin-6-yl)hex-2-enamide], the melting point fell in the range of 212 to 213 °C. Besides, the inhibition at 3 µM in data set [1] (setting [2]) worked out at 65%.
The matching figures for `CCC/C(=C\C=O)c1ccc2c(c1)C(CC)(CC)OC(=O)N2` [Example 26, (2E)-3-(4,4-Diethyl-2-oxo-1,4-dihydro-2H-3,1-benzoxazin-6-yl)hex-2-enal]: 173 to 179 °C and 100%.

As a reminder, the melting point is the temperature, or range, at which the solid turns liquid. By IC50 is commonly meant the point on the concentration scale where inhibition reaches its midpoint. The inhibition is the change of the read-out against control, counted positive when it falls.
